Article PMC4778918, “Signal Transduction at the Domain Interface of Prokaryotic Pentameric Ligand-Gated Ion Channels” (PLoS Biology, 2016)
pKd: −log10 of the molar value.

How the values were obtained:
ELIC WT = ELIC WT (Dickeya chrysanthemi, UniProt P0C7B7, INS163G); test: biochemical; format: binding, Erwinia chrisanthemi; conditions: ITC, ELIC WT in detergent (UDM), 4°C, single-site isotherm; read-out: effective dissociation constant (Keff)
ELIC T28D = ELIC T28D (Dickeya chrysanthemi, UniProt P0C7B7, INS163G/T28D); test: biochemical; format: binding, Erwinia chrisanthemi; conditions: read-out: Keff

CC(=O)OCC[N+](C)(C)C [acetylcholine]
pKd (ELIC WT): 2.60 | pKd (ELIC T28D): 2.70
